Results as given in PMC8591201, “Anti-Tumor Activity of AZD4547 Against NTRK1 Fusion Positive Cancer Cells Through Inhibition of NTRKs” (Frontiers in Oncology, 2021).

Tests used:
Assay in all cases: cells
Set-up in all cases: Anti-proliferation, 10-point dose response, CellTiter-Glo luminescence (MTT stated for KM12(Luc)), GI50 fitted in Prism
U-87-MG = conditions: Homo sapiens, U-87 MG, 72 h, read-out: GI50 (µM) a
A549 = conditions: Homo sapiens, A549, 72 h, read-out: GI50 (µM) a
NCI-H2009 = conditions: Homo sapiens, NCI-H2009, 72 h, read-out: GI50 (µM) a
PC-3 = conditions: Homo sapiens, PC-3, 72 h, read-out: GI50 (µM) a
NCI-H1666 = conditions: Homo sapiens, NCI-H1666, 72 h, read-out: GI50 (µM) a
AGS = conditions: Homo sapiens, AGS, 72 h, read-out: GI50 (µM) a
DU-145 = conditions: Homo sapiens, DU-145, 72 h, read-out: GI50 (µM) a
HCC70 = conditions: Homo sapiens, HCC70, 72 h, read-out: GI50 (µM) a
RT-112 = conditions: Homo sapiens, RT-112, 72 h, read-out: GI50 (µM) a
GIST-T1 = conditions: Homo sapiens, GISTT1, 72 h, read-out: GI50 (µM) a
HT-29 = conditions: Homo sapiens, HT-29, 72 h, read-out: GI50 (µM) a
AN3-CA = conditions: Homo sapiens, AN3-CA, 72 h, read-out: GI50 (µM) a

COc1cc(CCc2cc(NC(=O)c3ccc(N4C[C@@H](C)N[C@@H](C)C4)cc3)n[nH]2)cc(OC)c1 [AZD4547]
GI50 (U-87-MG): 8.94 µM | GI50 (A549): 11.6 µM | GI50 (NCI-H2009): 50 µM | GI50 (PC-3): 10.6 µM | GI50 (NCI-H1666): 10.8 µM | GI50 (AGS): 58.1 µM | GI50 (DU-145): 10.7 µM | GI50 (HCC70): 16.6 µM | GI50 (RT-112): 0.42 µM | GI50 (GIST-T1): 1.09 µM | GI50 (HT-29): 9.63 µM | GI50 (AN3-CA): 0.2 µM
